Like-named read-outs stand apart in the source and are kept apart here.
Assays:
[1] = system: Key Grass and Sedge Weeds as well as Grass Crops; test: Post-Emergent Test II: postemergent herbicidal activity, visual rating after 14 d (Table 8); format: in vivo; conditions: post-emergence, 336 h; for pest or weed control at 35 g/ha: 35 g ai/ha; for pest or weed control at 70 g/ha: 70 g ai/ha; for pest or weed control at 140 g/ha: 140 g ai/ha
Outline: (§1)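 Plants were raised in a greenhouse for 7-21 d and treated once at the first or second true leaf stage. Compounds, dissolved in 97:3 acetone:DMSO then diluted into an aqueous acetone/isopropanol/crop oil/Triton X-155 carrier, were applied by overhead track sprayer at 187 L/ha. After 14 d with subirrigation, injury was scored visually from 0 (none) to 100 (complete kill).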

[2] = system: Key Broadleaf Weed and Crop Species; test: Post-Emergent Test II: postemergent herbicidal activity, visual rating after 14 d (Table 7); format: in vivo; conditions: post-emergence, 336 h; for pest or weed control at 35 g/ha: 35 g ai/ha; for pest or weed control at 70 g/ha: 70 g ai/ha; for pest or weed control at 140 g/ha: 140 g ai/ha
Outline: as §1

[3] = barnyardgrass (Echinochloa crus-galli), read-out: Visual Growth Reduction (%) 14 Days After Application, ECHCG
[4] = giant foxtail (Setaria faberi), read-out: Visual Growth Reduction (%) 14 Days After Application, SETFA
[5] = maize, corn (Zea mays), read-out: Visual Growth Reduction (%) 14 Days After Application, ZEAMX
[6] = rice (Oryza sativa), read-out: Visual Growth Reduction (%) 14 Days After Application, ORYSA
[7] = wheat, spring (Triticum aestivum), read-out: Visual Growth Reduction (%) 14 Days After Application, TRZAS
[8] = yellow nutsedge (Cyperus esculentus), read-out: Visual Growth Reduction (%) 14 Days After Application, CYPES
[9] = ABUTH: velvetleaf (Abutilon theophrasti), read-out: Visual Growth Reduction (%) 14 Days After Application ABUTH
[10] = AMARE: redroot pigweed (Amaranthus retroflexus), read-out: Visual Growth Reduction (%) 14 Days After Application AMARE
[11] = BRSNN: oilseed rape, canola (Brassica napus), read-out: Visual Growth Reduction (%) 14 Days After Application BRSNN
[12] = CHEAL: lambsquarters (Chenopodium album), read-out: Visual Growth Reduction (%) 14 Days After Application CHEAL
[13] = EPHHL: wild poinsettia (Euphorbia heterophylla), read-out: Visual Growth Reduction (%) 14 Days After Application EPHHL
[14] = HELAN: sunflower (Helianthus annuus), read-out: Visual Growth Reduction (%) 14 Days After Application HELAN

SMILES | pest or weed control at 35 g/ha [1, 3] [%] | pest or weed control at 70 g/ha [1, 3] [%] | pest or weed control at 140 g/ha [1, 3] [%] | pest or weed control at 35 g/ha [1, 6] [%] | pest or weed control at 70 g/ha [1, 6] [%] | pest or weed control at 140 g/ha [1, 6] [%] | pest or weed control at 35 g/ha [1, 7] [%] | pest or weed control at 70 g/ha [1, 7] [%] | pest or weed control at 140 g/ha [1, 7] [%] | pest or weed control at 35 g/ha [1, 8] [%] | pest or weed control at 70 g/ha [1, 8] [%] | pest or weed control at 140 g/ha [1, 8] [%] | pest or weed control at 35 g/ha [2, 9] [%] | pest or weed control at 70 g/ha [2, 9] [%] | pest or weed control at 140 g/ha [2, 9] [%] | pest or weed control at 35 g/ha [2, 10] [%] | pest or weed control at 70 g/ha [2, 10] [%] | pest or weed control at 140 g/ha [2, 10] [%] | pest or weed control at 35 g/ha [2, 11] [%] | pest or weed control at 70 g/ha [2, 11] [%] | also measured
COC(=O)c1nc(-c2ccc3c(c2)COC3)c(F)c(N)c1Cl [Compound 103, Methyl 4-amino-3-chloro-6-(1,3-dihydroisobenzofuran-5-yl)-5-fluoropicolinate] | 0 to 29 | 0 to 29 | 0 to 29 | 0 to 29 | 0 to 29 | 0 to 29 | 0 to 29 | 0 to 29 | 0 to 29 | 0 to 29 | 0 to 29 | 0 to 29 | 0 to 29 | 0 to 29 | 0 to 29 | 0 to 29 | 0 to 29 | 0 to 29 | 0 to 29 | 0 to 29 | pest or weed control at 35 g/ha [1, 4]: 0 to 29%; pest or weed control at 70 g/ha [1, 4]: 0 to 29%; pest or weed control at 140 g/ha [1, 4]: 0 to 29%; pest or weed control at 35 g/ha [1, 5]: 0 to 29%; pest or weed control at 70 g/ha [1, 5]: 0 to 29%; pest or weed control at 140 g/ha [1, 5]: 0 to 29%; pest or weed control at 140 g/ha [2, 11]: 0 to 29%; pest or weed control at 35 g/ha [2, 12]: 45 to 59%; pest or weed control at 70 g/ha [2, 12]: 85 to 94%; pest or weed control at 140 g/ha [2, 12]: 95 to 100%; pest or weed control at 35 g/ha [2, 13]: 0 to 29%; pest or weed control at 70 g/ha [2, 13]: 0 to 29%; pest or weed control at 140 g/ha [2, 13]: 0 to 29%; pest or weed control at 35 g/ha [2, 14]: 75 to 84%; pest or weed control at 70 g/ha [2, 14]: 75 to 84%; pest or weed control at 140 g/ha [2, 14]: 75 to 84%
COC(=O)c1nc(-c2cccc3c2OC(F)(F)O3)cc(N)c1Cl [Compound 84] | 0 to 29 | 0 to 29 | 0 to 29 | 0 to 29 | 0 to 29 | 0 to 29 | 0 to 29 | 0 to 29 | 0 to 29 | 0 to 29 | 0 to 29 | 0 to 29 | 45 to 59 | 60 to 74 | 75 to 84 | 95 to 100 | 95 to 100 | 95 to 100 | 60 to 74 | 75 to 84 | pest or weed control at 35 g/ha [1, 4]: 0 to 29%; pest or weed control at 70 g/ha [1, 4]: 0 to 29%; pest or weed control at 140 g/ha [1, 4]: 0 to 29%; pest or weed control at 140 g/ha [2, 11]: 85 to 94%; pest or weed control at 35 g/ha [2, 12]: 85 to 94%; pest or weed control at 70 g/ha [2, 12]: 85 to 94%; pest or weed control at 140 g/ha [2, 12]: 95 to 100%; pest or weed control at 35 g/ha [2, 13]: 0 to 29%; pest or weed control at 70 g/ha [2, 13]: 0 to 29%; pest or weed control at 140 g/ha [2, 13]: 0 to 29%; pest or weed control at 35 g/ha [2, 14]: 0 to 29%; pest or weed control at 70 g/ha [2, 14]: 30 to 44%; pest or weed control at 140 g/ha [2, 14]: 30 to 44%
Nc1c(F)c(-c2ccc3c(c2)OCC3)nc(C(=O)O)c1Cl [Compound 101] | 60 to 74 | 60 to 74 | 75 to 84 | 0 to 29 | 0 to 29 | 0 to 29 | 0 to 29 | 0 to 29 | 0 to 29 | 0 to 29 | 0 to 29 | 0 to 29 | 75 to 84 | 85 to 94 | 95 to 100 | 95 to 100 | 95 to 100 | 95 to 100 | 0 to 29 | 85 to 94 | pest or weed control at 35 g/ha [1, 5]: 0 to 29%; pest or weed control at 70 g/ha [1, 5]: 0 to 29%; pest or weed control at 140 g/ha [1, 5]: 0 to 29%; pest or weed control at 140 g/ha [2, 11]: 95 to 100%; pest or weed control at 35 g/ha [2, 12]: 95 to 100%; pest or weed control at 70 g/ha [2, 12]: 95 to 100%; pest or weed control at 140 g/ha [2, 12]: 95 to 100%; pest or weed control at 35 g/ha [2, 13]: 0 to 29%; pest or weed control at 70 g/ha [2, 13]: 0 to 29%; pest or weed control at 140 g/ha [2, 13]: 30 to 44%; pest or weed control at 35 g/ha [2, 14]: 85 to 94%; pest or weed control at 70 g/ha [2, 14]: 85 to 94%; pest or weed control at 140 g/ha [2, 14]: 85 to 94%

— patent publication US9149038B2, “4-amino-6-(heterocyclic)picolinates and 6-amino-2-(heterocyclic)pyrimidine-4-carboxylates and their use as herbicides” (Dow AgroSciences LLC, priority 2013, dated 2015)
